Source: patent publication US9409905B2, “Antibacterial compounds and methods for use” (PTC THERAPEUTICS, INC., priority 2011, dated 2016)
≈ marks a conversion by molar mass, not a printed value.

What was measured:
[1] = test system: Klebsiella pneumoniae (K. pneumoniae) 35657; test: Antibacterial activity, MIC (Table 4); format: cell-based; settings: K. pneumoniae 35657, read-out: MIC, 35657
Outline: (§1)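 MIC (μg/mL) by microbroth dilution, taken as the lowest drug concentration preventing macroscopically visible growth. MXX strains are multi-drug resistant clinical isolates.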

[2] = test system: Acinetobacter baumannii (A. baumannii) BAA747; test: Antibacterial activity, MIC (Table 4); format: cell-based; settings: A. baumannii BAA747, read-out: MIC, BAA747
Outline: as §1

E. coli LZ3111 = test: Antibacterial activity, MIC, quinolone resistant strain (Table 2); format: cell-based; settings: Escherichia coli, LZ3111, read-out: MIC LZ3111
Outline: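 Lowest concentration giving no macroscopically visible growth was taken as the MIC (μg/mL) after microbroth dilution testing.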

[3] = test system: Pseudomonas aeruginosa (P. aeruginosa) 27853; test: Antibacterial activity, MIC (Table 5); format: cell-based; settings: P. aeruginosa 27853, read-out: MIC, 27853
Outline: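 MIC in μg/mL from broth microdilution; endpoint is the lowest drug level giving no visible growth.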

E. coli 25922 = test: Antibacterial activity, microbroth dilution MIC (Table 1); format: cell-based, Escherichia coli; settings: Escherichia coli; microbroth dilution; control Gram-negative E. coli 25922 strain; read-out: MIC, 25922
Outline: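 Each strain is exposed to test compound in a microbroth dilution series; visible growth is scored macroscopically, and the lowest growth-free concentration is recorded as MIC in μg/mL.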

A. baumannii MXX2240 = test: Antibacterial activity, MIC, resistant strain (Table 4); format: cell-based; settings: Acinetobacter baumannii, MXX2240; resistant A. baumannii MMX2240, multi-drug resistant clinical isolate; read-out: MIC, MMX2240
From the text: (§2) The antibacterial activity from a microbroth dilution method may be presented as the minimum inhibitory concentration (MIC in μg/mL). The MIC value is the lowest concentration of drug which prevents macroscopically visible growth under test conditions.
(§3) Antibacterial activity of test compounds against the Gram-negative Acinetobacter baumannii (A. baumannii) BAA747 and Klebsiella pneumoniae (K. pneumoniae) 35657 bacterium and the resistant A. baumannii MXX2240 and K. pneumoniae MXX1232 strains are shown in Table 4. The MMX strains are multi-drug resistant clinical isolates.

K. pneumoniae MXX1232 = test: as above; format: cell-based; settings: Klebsiella pneumoniae, MXX1232; resistant K. pneumoniae MMX1232, multi-drug resistant clinical isolate; read-out: MIC, MMX1232
From the text: as §2, §3

[4] = test system: Staphylococcus aureus (S. aureus) 29213; test: Antibacterial activity, microbroth dilution MIC (Table 1); format: cell-based; settings: microbroth dilution, Gram-positive S. aureus 29213, read-out: MIC, 29213
Outline: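 Microbroth dilution was used. MIC, in μg/mL, is the lowest drug concentration preventing macroscopically visible growth under the test conditions.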

[5] = test system: Escherichia coli (E. coli) BAS849; test: as above; format: cell-based; settings: microbroth dilution, super sensitive Gram-negative E. coli BAS849, read-out: MIC, BAS849
Outline: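 Broth microdilution; endpoint = no macroscopic growth; value = lowest inhibiting concn, μg/mL.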

| SMILES | MIC [1] [mg/L] | MIC [2] [mg/L] | MIC (E. coli LZ3111) [mg/L] | MIC [3] [mg/L] | MIC (E. coli 25922) [mg/L] | MIC (A. baumannii MXX2240) [mg/L] | MIC (K. pneumoniae MXX1232) [mg/L] | MIC [4] [mg/L] | MIC [5] [mg/L] |
| --- | --- | --- | --- | --- | --- | --- | --- | --- | --- |
| CCc1cc(C(=O)O)c(=O)[nH]c1-c1ccc2c(c1)cc(CN1CCN(C)CC1)n2C [Cpd 140, 5-ethyl-6-(1-methyl-2-((4-methylpiperazin-1-yl)methyl)-1H-indol-5-yl)-2-oxo-1,2-dihydropyridine-3-carboxylic acid] | 1 to 3.5 (≈ 2.45 to 8.57 µM) | 3.5 to 12.5 (≈ 8.57 to 30.6 µM) | 12.5 to 150 (≈ 30.6 to 367 µM) | 12.5 to 150 (≈ 30.6 to 367 µM) | 1 to 3.5 (≈ 2.45 to 8.57 µM) | 12.5 to 150 (≈ 30.6 to 367 µM) | 12.5 to 150 (≈ 30.6 to 367 µM) | 12.5 to 150 (≈ 30.6 to 367 µM) | < 1 |
| CCc1cc(C(=O)O)c(=O)[nH]c1-c1ccc2c(c1)cc1n2CCC1N1CCCCC1 (stereo not drawn) [Cpd 154, 5-ethyl-2-oxo-6-(1-(piperidin-1-yl)-2,3-dihydro-1H-pyrrolo[1,2-a]indol-7-yl)-1,2-dihydropyridine-3-carboxylic acid] | 1 to 3.5 (≈ 2.47 to 8.63 µM) | 3.5 to 12.5 (≈ 8.63 to 30.8 µM) | 12.5 to 150 (≈ 30.8 to 370 µM) | 12.5 to 150 (≈ 30.8 to 370 µM) | 1 to 3.5 (≈ 2.47 to 8.63 µM) | 12.5 to 150 (≈ 30.8 to 370 µM) | 12.5 to 150 (≈ 30.8 to 370 µM) | 12.5 to 150 (≈ 30.8 to 370 µM) | < 1 |
| CC(C)c1c(-c2ccc3c(c2)cc(CN(C)C)n3C)[nH]c(=O)c(C(=O)O)c1O [Cpd 318, 6-(2-((dimethylamino)methyl)-1-methyl-1H-indol-5-yl)-4-hydroxy-5-isopropyl-2-oxo-1,2-dihydropyridine-3-carboxylic acid] | 3.5 to 12.5 (≈ 9.13 to 32.6 µM) | 12.5 to 150 (≈ 32.6 to 391 µM) | 12.5 to 150 (≈ 32.6 to 391 µM) | 12.5 to 150 (≈ 32.6 to 391 µM) | 1 to 3.5 (≈ 2.61 to 9.13 µM) | 12.5 to 150 (≈ 32.6 to 391 µM) | 12.5 to 150 (≈ 32.6 to 391 µM) | 12.5 to 150 (≈ 32.6 to 391 µM) | < 1 |
| CN(C)Cc1cc2cc(-c3[nH]c(=O)c(C(=O)O)c(O)c3C3CC3)ccc2n1C [Cpd 322, 5-cyclopropyl-6-(2-((dimethylamino)methyl)-1-methyl-1H-indol-5-yl)-4-hydroxy-2-oxo-1,2-dihydropyridine-3-carboxylic acid] | 12.5 to 150 (≈ 32.8 to 393 µM) | 12.5 to 150 (≈ 32.8 to 393 µM) | 12.5 to 150 (≈ 32.8 to 393 µM) | 12.5 to 150 (≈ 32.8 to 393 µM) | 12.5 to 150 (≈ 32.8 to 393 µM) | 12.5 to 150 (≈ 32.8 to 393 µM) | 12.5 to 150 (≈ 32.8 to 393 µM) | 12.5 to 150 (≈ 32.8 to 393 µM) | 1 to 3.5 (≈ 2.62 to 9.18 µM) |
| C=CCc1c(-c2ccc3c(c2)cc(CN(C)C)n3C)[nH]c(=O)c(C(=O)O)c1O [Cpd 339, 5-allyl-6-(2-((dimethylamino)methyl)-1-methyl-1H-indol-5-yl)-4-hydroxy-2-oxo-1,2-dihydropyridine-3-carboxylic acid] | 1 to 3.5 (≈ 2.62 to 9.18 µM) | 3.5 to 12.5 (≈ 9.18 to 32.8 µM) | 3.5 to 12.5 (≈ 9.18 to 32.8 µM) | 12.5 to 150 (≈ 32.8 to 393 µM) | < 1 | 3.5 to 12.5 (≈ 9.18 to 32.8 µM) | 12.5 to 150 (≈ 32.8 to 393 µM) | 3.5 to 12.5 (≈ 9.18 to 32.8 µM) | < 1 |
| CCCc1c(-c2ccc3c(c2)cc(CN(C)C)n3C)[nH]c(=O)c(C(=O)O)c1O [Cpd 340, 6-(2-((dimethylamino)methyl)-1-methyl-1H-indol-5-yl)-4-hydroxy-2-oxo-5-propyl-1,2-dihydropyridine-3-carboxylic acid] | 3.5 to 12.5 (≈ 9.13 to 32.6 µM) | 12.5 to 150 (≈ 32.6 to 391 µM) | 3.5 to 12.5 (≈ 9.13 to 32.6 µM) | 12.5 to 150 (≈ 32.6 to 391 µM) | 3.5 to 12.5 (≈ 9.13 to 32.6 µM) | 3.5 to 12.5 (≈ 9.13 to 32.6 µM) | 12.5 to 150 (≈ 32.6 to 391 µM) | 12.5 to 150 (≈ 32.6 to 391 µM) | < 1 |
| COCCNCc1cc2cc(-c3[nH]c(=O)c(C(=O)O)c(O)c3C)ccc2n1C [Cpd 341, 4-hydroxy-6-(2-((2-methoxyethylamino)methyl)-1-methyl-1H-indol-5-yl)-5-methyl-2-oxo-1,2-dihydropyridine-3-carboxylic acid] | 3.5 to 12.5 (≈ 9.08 to 32.4 µM) | 3.5 to 12.5 (≈ 9.08 to 32.4 µM) | < 1 | 12.5 to 150 (≈ 32.4 to 389 µM) | 3.5 to 12.5 (≈ 9.08 to 32.4 µM) | 1 to 3.5 (≈ 2.59 to 9.08 µM) | 12.5 to 150 (≈ 32.4 to 389 µM) | 12.5 to 150 (≈ 32.4 to 389 µM) | < 1 |
| CCNCc1cc2cc(-c3[nH]c(=O)c(C(=O)O)c(O)c3C)ccc2n1C [Cpd 342, 6-(2-((ethylamino)methyl)-1-methyl-1H-indol-5-yl)-4-hydroxy-5-methyl-2-oxo-1,2-dihydropyridine-3-carboxylic acid] | < 1 | 3.5 to 12.5 (≈ 9.85 to 35.2 µM) | < 1 | 12.5 to 150 (≈ 35.2 to 422 µM) | 1 to 3.5 (≈ 2.81 to 9.85 µM) | 1 to 3.5 (≈ 2.81 to 9.85 µM) | 12.5 to 150 (≈ 35.2 to 422 µM) | 12.5 to 150 (≈ 35.2 to 422 µM) | < 1 |
| Cc1c(-c2ccc3c(c2)cc(CNCCN)n3C)[nH]c(=O)c(C(=O)O)c1O [Cpd 343, 6-(2-((2-aminoethylamino)methyl)-1-methyl-1H-indol-5-yl)-4-hydroxy-5-methyl-2-oxo-1,2-dihydropyridine-3-carboxylic acid] | 12.5 to 150 (≈ 33.7 to 405 µM) | 12.5 to 150 (≈ 33.7 to 405 µM) | 12.5 to 150 (≈ 33.7 to 405 µM) | 12.5 to 150 (≈ 33.7 to 405 µM) | 12.5 to 150 (≈ 33.7 to 405 µM) | 12.5 to 150 (≈ 33.7 to 405 µM) | 12.5 to 150 (≈ 33.7 to 405 µM) | 12.5 to 150 (≈ 33.7 to 405 µM) | 12.5 to 150 (≈ 33.7 to 405 µM) |
| CNCCNCc1cc2cc(-c3[nH]c(=O)c(C(=O)O)c(O)c3C)ccc2n1C [Cpd 344, 4-hydroxy-5-methyl-6-(1-methyl-2-((2-(methylamino)ethylamino)methyl)-1H-indol-5-yl)-2-oxo-1,2-dihydropyridine-3-carboxylic acid] | 12.5 to 150 (≈ 32.5 to 390 µM) | 12.5 to 150 (≈ 32.5 to 390 µM) | 12.5 to 150 (≈ 32.5 to 390 µM) | 12.5 to 150 (≈ 32.5 to 390 µM) | 12.5 to 150 (≈ 32.5 to 390 µM) | 12.5 to 150 (≈ 32.5 to 390 µM) | 12.5 to 150 (≈ 32.5 to 390 µM) | 12.5 to 150 (≈ 32.5 to 390 µM) | 12.5 to 150 (≈ 32.5 to 390 µM) |
| Cc1c(-c2ccc3c(c2)cc(CNCCN(C)C)n3C)[nH]c(=O)c(C(=O)O)c1O [Cpd 345, 6-(2-((2-(dimethylamino)ethylamino)methyl)-1-methyl-1H-indol-5-yl)-4-hydroxy-5-methyl-2-oxo-1,2-dihydropyridine-3-carboxylic acid] | 12.5 to 150 (≈ 31.4 to 376 µM) | 12.5 to 150 (≈ 31.4 to 376 µM) | 1 to 3.5 (≈ 2.51 to 8.78 µM) | 12.5 to 150 (≈ 31.4 to 376 µM) | 12.5 to 150 (≈ 31.4 to 376 µM) | 12.5 to 150 (≈ 31.4 to 376 µM) | 12.5 to 150 (≈ 31.4 to 376 µM) | 12.5 to 150 (≈ 31.4 to 376 µM) | 3.5 to 12.5 (≈ 8.78 to 31.4 µM) |
| COCC(C)NCc1cc2cc(-c3[nH]c(=O)c(C(=O)O)c(O)c3C)ccc2n1C (stereo not drawn) [Cpd 346, 4-hydroxy-6-(2-((1-methoxypropan-2-ylamino)methyl)-1-methyl-1H-indol-5-yl)-5-methyl-2-oxo-1,2-dihydropyridine-3-carboxylic acid] | 3.5 to 12.5 (≈ 8.76 to 31.3 µM) | 3.5 to 12.5 (≈ 8.76 to 31.3 µM) | 3.5 to 12.5 (≈ 8.76 to 31.3 µM) | 12.5 to 150 (≈ 31.3 to 376 µM) | 12.5 to 150 (≈ 31.3 to 376 µM) | 3.5 to 12.5 (≈ 8.76 to 31.3 µM) | 12.5 to 150 (≈ 31.3 to 376 µM) | 12.5 to 150 (≈ 31.3 to 376 µM) | < 1 |
| CCC(C)NCc1cc2cc(-c3[nH]c(=O)c(C(=O)O)c(O)c3C)ccc2n1C (stereo not drawn) [Cpd 347, 6-(2-((sec-butylamino)methyl)-1-methyl-1H-indol-5-yl)-4-hydroxy-5-methyl-2-oxo-1,2-dihydropyridine-3-carboxylic acid] | 1 to 3.5 (≈ 2.61 to 9.13 µM) | < 1 | 1 to 3.5 (≈ 2.61 to 9.13 µM) | 12.5 to 150 (≈ 32.6 to 391 µM) | 3.5 to 12.5 (≈ 9.13 to 32.6 µM) | < 1 | 12.5 to 150 (≈ 32.6 to 391 µM) | 12.5 to 150 (≈ 32.6 to 391 µM) | < 1 |
